Test results as given in the supplement of paper PMC10331698.
± gives the standard deviation of the averaged measurements.

Legend:
Assay in all cases: level (log10 ratio to DMSO vehicle control); higher = higher biomarker level / cell amount than vehicle control
[1] = compound: NS(=O)(=O)C(F)(F)C(F)(F)C(F)(F)C(F)(F)C(F)(F)C(F)(F)F [Perfluorohexanesulfonamide]; conditions: in DMSO
Procedure: (§1)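 BioMAP Diversity Plus panel of 12 human primary cell co-culture systems (3C, 4H, LPS, SAg, BT, BF4T, BE3C, CASM3C, HDF3CGF, KF3CT, MyoF, Mphg). Compounds were added 1 h before stimulation and left for 24 h (MyoF 48 h; BT 72 h for soluble read-outs or 6 d for IgG). Biomarkers were read by ELISA, cytotoxicity by SRB, PBMC viability and proliferation by Alamar Blue. Each well value was divided by the mean of 8 DMSO control wells on the same plate and log10 transformed; duplicate blinded samples were tested at 4 concentrations.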

[2] = compound: O=S(=O)(Cl)C(F)(F)C(F)(F)C(F)(F)C(F)(F)C(F)(F)C(F)(F)C(F)(F)C(F)(F)F [Perfluoro-1-octanesulfonyl chloride]; conditions: in DMSO
Procedure: as §1

[3] = compound: FC(F)(F)C(F)(F)C(F)(F)C(F)(F)C(F)(F)C(F)(F)CC1CO1 [3-(Perfluorohexyl)-1,2-epoxypropane]; conditions: in DMSO
Procedure: as §1

[4] = compound: FC(F)(F)C(F)(F)C(F)(F)C(F)(F)C(F)(F)C(F)(F)C(F)(F)I [1-Iodopentadecafluoroheptane]; conditions: in DMSO
Procedure: as §1

[5] = compound: FC(F)(F)C(F)(F)C(F)(F)CC1CO1 [1H,1H-Heptafluorobutyl epoxide]; conditions: in DMSO
Procedure: as §1

[6] = compound: NC(=O)C(F)(F)C(F)(F)C(F)(F)C(F)(F)C(N)=O [Octafluoroadipamide]; conditions: in DMSO
Procedure: as §1

[7] = compound: O=S(=O)(F)C(F)(F)C(F)(F)C(F)(F)C(F)(F)C(F)(F)C(F)(F)C(F)(F)C(F)(F)F [Perfluorooctanesulfonyl fluoride]; conditions: in DMSO
Procedure: as §1

[8] = compound: COC(=O)C(F)(F)C(F)(F)OC(F)(C(F)(F)F)C(F)(F)OC(F)=C(F)F [Methyl perfluoro(3-(1-ethenyloxypropan-2-yloxy)propanoate)]; conditions: in DMSO
Procedure: as §1

[9] = compound: NC(=O)C(F)(F)C(F)(F)C(F)(F)C(F)F; conditions: in DMSO
Procedure: as §1

[10] = compound: O=S(=O)(O)C(F)(F)C(F)(F)C(F)(F)C(F)(F)C(F)(F)C(F)(F)C(F)(F)C(F)(F)C(F)(F)C(F)(F)F [Sodium perfluorodecanesulfonate]; conditions: in DMSO
Procedure: as §1

[11] = compound: O=S(=O)(O)CCC(F)(F)C(F)(F)C(F)(F)C(F)(F)C(F)(F)C(F)(F)F [6:2 Fluorotelomer sulfonic acid]; conditions: in DMSO
Procedure: as §1

[12] = compound: FC(F)(F)C(F)(F)C(F)(F)CI [Heptafluorobutyl iodide]; conditions: in DMSO
Procedure: as §1

[13] = compound: NC(=O)C(F)(F)C(F)(F)C(F)(F)C(F)(F)F [Nonafluoropentanamide]; conditions: in DMSO
Procedure: as §1

[14] = compound: C=C(C)C(=O)OCCC(F)(F)C(F)(F)C(F)(F)C(F)(F)C(F)(F)C(F)(F)F [6:2 Fluorotelomer methacrylate]; conditions: in DMSO
Procedure: as §1

[15] = compound: C=CC(=O)OCC(F)(F)C(F)(F)C(F)(F)COC(=O)C=C [1H,1H,5H,5H-Perfluoro-1,5-pentanediol diacrylate]; conditions: 6700 nM; in DMSO
Procedure: as §1

[16] = compound: O=C(O)C(F)(F)C(F)(F)C(F)(F)C(F)(F)C(F)(F)C(F)(F)C(F)(F)C(F)(F)C(F)(F)C(F)F [11-H-Perfluoroundecanoic acid]; conditions: in DMSO
Procedure: as §1

[17] = compound: FC(F)(F)C(F)(F)CNCC(F)(F)C(F)(F)F [Bis(1H,1H-perfluoropropyl)amine]; conditions: in DMSO
Procedure: as §1

[18] = compound: OCC(F)(F)C(F)(F)C(F)(F)CO [Hexafluoroamylene glycol]; conditions: in DMSO
Procedure: as §1

[19] = compound: O=C(O)C=CC(F)(C(F)(F)F)C(F)(F)F [3-(Perfluoroisopropyl)-2-propenoic acid]; conditions: in DMSO
Procedure: as §1

LPS:CD106/VCAM-1
level (log10) ([1]; 6700 nM): -0.029 ± 0.047
level (log10) ([1]; 20000 nM): -0.0315 ± 0.049
level (log10) ([1]; 60000 nM): -0.097 ± 0.016
level (log10) ([2]; 6700 nM): -0.018 ± 0.0071
level (log10) ([2]; 20000 nM): -0.0065 ± 0.0092
level (log10) ([2]; 60000 nM): -0.022 ± 0.02
level (log10) ([3]; 6700 nM): -0.002 ± 0.011
level (log10) ([3]; 20000 nM): -0.0235 ± 0.015
level (log10) ([3]; 60000 nM): -0.022 ± 0.017
level (log10) ([4]; 6700 nM): 0.0045 ± 0.016
level (log10) ([4]; 20000 nM): -0.005 ± 0.0071
level (log10) ([5]; 6700 nM): 0.01 ± 0.017
level (log10) ([5]; 20000 nM): 0.0125 ± 0.0064
level (log10) ([5]; 60000 nM): 0.002 ± 0.0071
level (log10) ([6]; 6700 nM): -0.022 ± 0.047
level (log10) ([6]; 20000 nM): -0.0065 ± 0.0092
level (log10) ([6]; 60000 nM): 0.008 ± 0.021
level (log10) ([7]; 6700 nM): 0.0025 ± 0.011
level (log10) ([7]; 20000 nM): -0.0125 ± 0.00071
level (log10) ([7]; 60000 nM): 0.007 ± 0.0085
level (log10) ([8]; 6700 nM): -0.066 ± 0.013
level (log10) ([8]; 20000 nM): -0.0805 ± 0.0064
level (log10) ([9]; 6700 nM): -0.0055 ± 0.025
level (log10) ([9]; 20000 nM): -0.023 ± 0.041
level (log10) ([9]; 60000 nM): -0.015 ± 0.025
level (log10) ([10]; 1500 nM): -0.0045 ± 0.029
level (log10) ([10]; 4400 nM): 0.0035 ± 0.0078
level (log10) ([10]; 13000 nM): -0.0265 ± 0.035
level (log10) ([10]; 40000 nM): -0.076 ± 0.0028
level (log10) ([11]; 6700 nM): -0.0055 ± 0.067
level (log10) ([11]; 20000 nM): -0.0005 ± 0.074
level (log10) ([11]; 60000 nM): 0.0115 ± 0.042
level (log10) ([12]; 6700 nM): -0.0355 ± 0.0092
level (log10) ([12]; 20000 nM): -0.001 ± 0.018
level (log10) ([12]; 60000 nM): -0.0485 ± 0.054
level (log10) ([13]; 6700 nM): -0.0075 ± 0.028
level (log10) ([13]; 20000 nM): -0.0135 ± 0.005
level (log10) ([13]; 60000 nM): 0.0035 ± 0.011
level (log10) ([14]; 6700 nM): 0.0165 ± 0.0092
level (log10) ([14]; 20000 nM): -0.0025 ± 0.021
level (log10) ([14]; 60000 nM): 0.0055 ± 0.018
level (log10) [15]: -0.118 ± 0.071
level (log10) ([16]; 6700 nM): 0.0025 ± 0.019
level (log10) ([16]; 20000 nM): -0.002 ± 0.02
level (log10) ([17]; 6700 nM): -0.005 ± 0.0057
level (log10) ([17]; 20000 nM): 0.001 ± 0.021
level (log10) ([17]; 60000 nM): 0.0065 ± 0.0064
level (log10) ([18]; 6700 nM): -0.0215 ± 0.054
level (log10) ([18]; 20000 nM): -0.03 ± 0.064
level (log10) ([18]; 60000 nM): -0.0055 ± 0.059
level (log10) ([19]; 6700 nM): 0.003 ± 0.018
level (log10) ([19]; 20000 nM): -0.023 ± 0.013
level (log10) ([19]; 60000 nM): -0.018 ± 0.021
